The values that follow come from ChEMBL document CHEMBL3991601, “The target landscape of clinical kinase drugs” (Science, 2017).

Activity calls are given as the source filed them. Where only a bound is given, the exact number is not on record here.

What is called Kd is the free concentration of one partner at which half of the binding sites on the other are occupied at equilibrium, for simple one-to-one binding.

The target of one assay is T1, dCTP pyrophosphatase 1 (Homo sapiens, UniProt Q9H773).
T1 sequence (Q9H773 whole entry): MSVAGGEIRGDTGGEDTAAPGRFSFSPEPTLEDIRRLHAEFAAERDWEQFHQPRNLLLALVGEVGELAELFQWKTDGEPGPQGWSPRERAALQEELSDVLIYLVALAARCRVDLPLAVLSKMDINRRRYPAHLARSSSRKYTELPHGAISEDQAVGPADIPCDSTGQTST

Assay [1] deals with T2, Mitogen-activated protein kinase kinase kinase 6 (Homo sapiens, UniProt O95382).
T2 sequence (O95382 whole entry): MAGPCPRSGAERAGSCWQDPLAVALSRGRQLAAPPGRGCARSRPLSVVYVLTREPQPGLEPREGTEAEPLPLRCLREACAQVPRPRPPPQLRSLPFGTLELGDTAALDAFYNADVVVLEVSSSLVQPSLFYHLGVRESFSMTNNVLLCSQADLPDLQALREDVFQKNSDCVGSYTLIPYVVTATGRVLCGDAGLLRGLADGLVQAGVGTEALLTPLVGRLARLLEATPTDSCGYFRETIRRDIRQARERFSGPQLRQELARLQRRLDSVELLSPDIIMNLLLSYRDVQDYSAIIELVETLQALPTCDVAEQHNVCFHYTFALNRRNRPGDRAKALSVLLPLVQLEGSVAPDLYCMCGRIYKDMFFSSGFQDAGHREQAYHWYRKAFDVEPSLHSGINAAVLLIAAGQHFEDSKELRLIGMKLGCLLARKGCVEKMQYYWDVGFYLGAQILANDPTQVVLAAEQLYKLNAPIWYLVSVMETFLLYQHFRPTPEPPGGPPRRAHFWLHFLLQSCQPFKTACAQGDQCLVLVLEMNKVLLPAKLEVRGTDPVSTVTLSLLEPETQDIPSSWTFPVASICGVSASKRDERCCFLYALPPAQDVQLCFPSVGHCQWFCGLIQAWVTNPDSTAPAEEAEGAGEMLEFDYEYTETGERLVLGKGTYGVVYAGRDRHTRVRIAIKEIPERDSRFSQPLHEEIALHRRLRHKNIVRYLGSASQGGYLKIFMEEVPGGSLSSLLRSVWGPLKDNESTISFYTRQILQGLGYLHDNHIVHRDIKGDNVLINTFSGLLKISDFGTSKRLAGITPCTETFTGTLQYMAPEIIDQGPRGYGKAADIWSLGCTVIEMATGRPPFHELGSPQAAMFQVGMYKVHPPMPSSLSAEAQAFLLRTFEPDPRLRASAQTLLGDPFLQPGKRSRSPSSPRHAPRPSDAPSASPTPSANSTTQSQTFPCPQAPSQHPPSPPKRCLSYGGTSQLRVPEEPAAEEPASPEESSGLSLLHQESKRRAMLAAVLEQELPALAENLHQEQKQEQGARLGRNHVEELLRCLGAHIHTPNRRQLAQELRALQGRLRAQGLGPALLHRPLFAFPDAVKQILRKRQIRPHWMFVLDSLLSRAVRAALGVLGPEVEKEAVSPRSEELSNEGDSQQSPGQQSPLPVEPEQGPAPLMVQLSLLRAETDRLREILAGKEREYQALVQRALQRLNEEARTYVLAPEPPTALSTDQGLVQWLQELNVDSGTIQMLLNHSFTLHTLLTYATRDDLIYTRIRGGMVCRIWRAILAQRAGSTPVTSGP

For another assay, the target named is Myosin-14 (Homo sapiens, UniProt Q7Z406).
Assay [2] addresses Serine/threonine-protein kinase pim-1 (Homo sapiens, UniProt P11309).
For assay [3], the target named is T3, Phosphatidylinositol 5-phosphate 4-kinase type-2 gamma (Homo sapiens, UniProt Q8TBX8).
T3 sequence (Q8TBX8 whole entry): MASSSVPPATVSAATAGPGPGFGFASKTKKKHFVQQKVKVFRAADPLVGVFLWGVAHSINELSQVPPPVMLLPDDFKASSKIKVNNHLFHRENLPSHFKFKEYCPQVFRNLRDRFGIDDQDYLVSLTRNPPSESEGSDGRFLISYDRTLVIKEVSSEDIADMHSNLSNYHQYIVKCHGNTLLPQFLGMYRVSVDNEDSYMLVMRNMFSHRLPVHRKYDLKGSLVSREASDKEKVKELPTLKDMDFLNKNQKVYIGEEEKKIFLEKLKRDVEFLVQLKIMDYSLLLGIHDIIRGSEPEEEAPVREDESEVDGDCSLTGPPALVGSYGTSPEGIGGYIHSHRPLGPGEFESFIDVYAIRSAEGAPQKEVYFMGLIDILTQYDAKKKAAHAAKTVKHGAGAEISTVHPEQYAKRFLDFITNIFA

The target in a further assay is T4, Rab-like protein 3 (Homo sapiens, UniProt Q5HYI8).
T4 sequence (Q5HYI8 whole entry): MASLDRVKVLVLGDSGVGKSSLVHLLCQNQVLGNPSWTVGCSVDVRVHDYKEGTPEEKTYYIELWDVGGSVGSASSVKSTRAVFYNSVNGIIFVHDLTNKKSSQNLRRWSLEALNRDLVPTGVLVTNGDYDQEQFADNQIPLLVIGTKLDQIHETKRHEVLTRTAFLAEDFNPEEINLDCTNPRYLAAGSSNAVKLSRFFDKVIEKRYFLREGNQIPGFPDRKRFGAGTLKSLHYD

Assay [4] concerns the target T5, Succinate--CoA ligase [ADP-forming] subunit beta, mitochondrial (Homo sapiens, UniProt Q9P2R7).
T5 sequence (Q9P2R7 whole entry): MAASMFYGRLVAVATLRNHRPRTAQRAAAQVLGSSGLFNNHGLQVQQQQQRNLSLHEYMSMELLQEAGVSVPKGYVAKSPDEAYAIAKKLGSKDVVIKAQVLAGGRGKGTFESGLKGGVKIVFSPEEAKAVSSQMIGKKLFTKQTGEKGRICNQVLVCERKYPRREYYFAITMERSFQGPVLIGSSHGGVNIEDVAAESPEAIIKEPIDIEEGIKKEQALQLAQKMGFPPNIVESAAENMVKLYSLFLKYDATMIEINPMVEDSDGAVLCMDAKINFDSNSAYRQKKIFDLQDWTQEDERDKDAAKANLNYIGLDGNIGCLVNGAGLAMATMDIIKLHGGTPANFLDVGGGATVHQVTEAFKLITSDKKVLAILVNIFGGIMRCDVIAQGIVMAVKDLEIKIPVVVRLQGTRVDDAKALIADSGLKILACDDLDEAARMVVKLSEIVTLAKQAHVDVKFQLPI
Further: in the data inactive means no Kd found up to 30 µM.

Chain of Myosin-14 (Q7Z406 whole entry): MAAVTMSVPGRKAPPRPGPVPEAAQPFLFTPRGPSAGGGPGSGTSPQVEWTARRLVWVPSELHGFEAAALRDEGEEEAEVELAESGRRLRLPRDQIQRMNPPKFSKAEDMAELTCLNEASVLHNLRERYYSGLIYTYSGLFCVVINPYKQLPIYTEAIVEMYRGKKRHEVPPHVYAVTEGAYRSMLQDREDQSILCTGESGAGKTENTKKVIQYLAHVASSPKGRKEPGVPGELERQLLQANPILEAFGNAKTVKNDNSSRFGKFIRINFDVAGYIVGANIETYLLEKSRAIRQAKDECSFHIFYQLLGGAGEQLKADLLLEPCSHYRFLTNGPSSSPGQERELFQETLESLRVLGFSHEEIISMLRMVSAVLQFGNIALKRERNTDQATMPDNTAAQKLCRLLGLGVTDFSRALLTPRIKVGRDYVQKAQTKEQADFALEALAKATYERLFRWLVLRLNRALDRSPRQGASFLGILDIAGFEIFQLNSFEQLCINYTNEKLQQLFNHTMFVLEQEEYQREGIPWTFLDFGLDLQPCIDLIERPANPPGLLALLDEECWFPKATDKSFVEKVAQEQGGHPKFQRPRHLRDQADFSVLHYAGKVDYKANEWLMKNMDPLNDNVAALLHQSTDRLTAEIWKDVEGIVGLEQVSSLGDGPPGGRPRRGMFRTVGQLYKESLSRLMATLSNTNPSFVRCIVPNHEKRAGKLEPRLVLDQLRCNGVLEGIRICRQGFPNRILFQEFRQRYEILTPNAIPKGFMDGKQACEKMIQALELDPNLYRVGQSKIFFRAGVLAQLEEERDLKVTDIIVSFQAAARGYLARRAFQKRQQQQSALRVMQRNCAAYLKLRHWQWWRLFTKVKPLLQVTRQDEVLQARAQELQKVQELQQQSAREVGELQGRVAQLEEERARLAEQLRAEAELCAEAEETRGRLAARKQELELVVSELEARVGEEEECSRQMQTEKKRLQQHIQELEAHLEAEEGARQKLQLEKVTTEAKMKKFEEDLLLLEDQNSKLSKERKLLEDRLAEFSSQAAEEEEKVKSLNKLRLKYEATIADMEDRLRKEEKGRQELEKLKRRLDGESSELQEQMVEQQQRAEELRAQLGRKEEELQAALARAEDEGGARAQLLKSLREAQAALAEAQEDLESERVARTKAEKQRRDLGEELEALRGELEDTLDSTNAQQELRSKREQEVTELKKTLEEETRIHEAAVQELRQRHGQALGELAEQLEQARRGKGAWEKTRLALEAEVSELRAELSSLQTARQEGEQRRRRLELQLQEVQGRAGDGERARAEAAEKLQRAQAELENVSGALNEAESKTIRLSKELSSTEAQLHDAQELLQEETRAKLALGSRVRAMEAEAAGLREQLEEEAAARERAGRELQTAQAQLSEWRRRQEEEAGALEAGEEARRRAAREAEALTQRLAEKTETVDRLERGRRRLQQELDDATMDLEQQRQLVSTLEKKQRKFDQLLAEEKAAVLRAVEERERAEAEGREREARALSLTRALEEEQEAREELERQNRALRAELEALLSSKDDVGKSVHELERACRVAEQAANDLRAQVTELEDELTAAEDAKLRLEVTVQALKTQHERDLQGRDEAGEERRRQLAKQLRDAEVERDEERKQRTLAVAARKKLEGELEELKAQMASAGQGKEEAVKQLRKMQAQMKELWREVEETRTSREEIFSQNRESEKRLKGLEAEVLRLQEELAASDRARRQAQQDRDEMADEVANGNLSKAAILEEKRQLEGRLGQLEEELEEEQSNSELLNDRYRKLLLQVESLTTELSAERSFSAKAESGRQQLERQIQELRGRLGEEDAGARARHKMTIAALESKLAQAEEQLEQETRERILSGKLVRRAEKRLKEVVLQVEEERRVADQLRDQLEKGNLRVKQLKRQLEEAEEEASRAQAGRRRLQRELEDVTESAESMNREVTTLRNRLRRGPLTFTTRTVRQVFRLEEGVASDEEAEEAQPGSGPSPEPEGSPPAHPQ
Chain of Serine/threonine-protein kinase pim-1 (P11309 whole entry): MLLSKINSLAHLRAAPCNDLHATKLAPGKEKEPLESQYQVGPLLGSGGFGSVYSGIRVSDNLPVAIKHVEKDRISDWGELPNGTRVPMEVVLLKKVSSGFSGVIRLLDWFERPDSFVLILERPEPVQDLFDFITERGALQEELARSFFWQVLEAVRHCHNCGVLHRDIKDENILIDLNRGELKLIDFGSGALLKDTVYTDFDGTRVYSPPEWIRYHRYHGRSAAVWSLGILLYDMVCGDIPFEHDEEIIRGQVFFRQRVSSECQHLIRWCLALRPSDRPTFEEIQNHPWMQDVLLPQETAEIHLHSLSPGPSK

For the compound `CCc1nc(C(N)=O)c(Nc2ccc(N3CCC(N4CCN(C)CC4)CC3)c(OC)c2)nc1NC1CCOCC1` [GILTERITINIB], the Kd on dCTP pyrophosphatase 1 is > 30 µM (inactive); in assay [1] it was > 30 µM (inactive); on Myosin-14, > 30 µM (inactive); in assay [2] it was > 30 µM (inactive); in assay [3], > 30 µM (inactive); at Rab-like protein 3 it was 4.83 µM. Besides, in assay [4], the Kd is > 30 µM (inactive).
Regarding `Cc1cc(Nc2nc(N[C@@H](C)c3ncc(F)cn3)ncc2Cl)n[nH]1` [AZD-1480], the Kd (on dCTP pyrophosphatase 1; in assay [1]; on Myosin-14; in assay [2]; in assay [3]; on Rab-like protein 3) was > 30 µM (inactive) each time.
Regarding `CCOc1ccn(-c2ccc(F)cc2)c(=O)c1C(=O)Nc1ccc(Oc2ccnc(N)c2Cl)c(F)c1` [BMS-777607], the Kd (on dCTP pyrophosphatase 1; in assay [2]; in assay [3]; at Rab-like protein 3; in assay [4]) was > 30 µM (inactive) throughout.
`O[C@H]1CC[C@H](Nc2ncc3nc(Nc4c(F)cc(F)cc4F)n([C@H]4CCOC4)c3n2)CC1` [TANZISERTIB]: the Kd (on dCTP pyrophosphatase 1; in assay [1]; in assay [2]; in assay [3]; on Rab-like protein 3; in assay [4]) was > 30 µM (inactive) in each case.
On to `FC(F)(F)c1ccc(CNc2ccc(Cc3c[nH]c4ncc(Cl)cc34)cn2)cn1` [PEXIDARTINIB], for which the Kd (at dCTP pyrophosphatase 1; in assay [1]; in assay [2]; in assay [3]; on Rab-like protein 3; in assay [4]) was > 30 µM (inactive) each time.
Regarding `CNC(=O)c1cc(COc2nnc(Nc3ccc(Cl)cc3)c3ccoc23)ccn1` [TELATINIB], the Kd (on dCTP pyrophosphatase 1; in assay [1]; in assay [2]; in assay [3]; on Rab-like protein 3; in assay [4]) was > 30 µM (inactive) throughout.
Consider `Cc1cc(-c2cc(OC(=O)c3ccccc3)ccc2Cl)cc2nnc(Nc3ccc(OCCN4CCCC4)cc3)nc12` [TG100-801], for which the Kd (at dCTP pyrophosphatase 1; in assay [1]; at Myosin-14; in assay [2]; in assay [3]; at Rab-like protein 3) was > 30 µM (inactive) throughout.
Regarding `N#CCNC(=O)c1ccc(-c2ccnc(Nc3ccc(N4CCOCC4)cc3)n2)cc1` [MOMELOTINIB], the Kd (at dCTP pyrophosphatase 1; on Myosin-14; in assay [2]; in assay [3]; on Rab-like protein 3; in assay [4]) was > 30 µM (inactive) in each case.
Turning to `c1cc(OCCN2CCCCC2)cc(-c2n[nH]c3ccc(-c4nc[nH]n4)cc23)c1` [CC-401], the Kd (at dCTP pyrophosphatase 1; in assay [1]; at Myosin-14; in assay [2]; in assay [3]; at Rab-like protein 3) was > 30 µM (inactive) each time.
Consider `COCCN1CCN(Cc2ccc(-c3n[nH]c4c3C(=O)c3c(NC(=O)NN5CCOCC5)cccc3-4)cc2)CC1` [RGB-286638], for which the Kd at dCTP pyrophosphatase 1 is > 30 µM (inactive); in assay [1], > 30 µM (inactive); in assay [2], > 30 µM (inactive); in assay [3] it was 2.18 µM; at Rab-like protein 3, > 30 µM (inactive); in assay [4], > 30 µM (inactive).
`C=CCN(/C=C1/C(=O)O[C@H](COC)[C@@]2(C)C1=C(O)C(=O)C1=C2[C@H](OC(C)=O)C[C@]2(C)C(=O)CC[C@@H]12)CC=C` [SONOLISIB]: the Kd (on dCTP pyrophosphatase 1; in assay [1]; in assay [2]; in assay [3]; on Rab-like protein 3; in assay [4]) was > 30 µM (inactive) throughout.
For the compound `COc1cc(Nc2ncc(F)c(Nc3ccc4c(n3)N(COP(=O)(O)O)C(=O)C(C)(C)O4)n2)cc(OC)c1OC` [FOSTAMATINIB], the Kd (at dCTP pyrophosphatase 1; in assay [1]; at Myosin-14; in assay [2]; at Rab-like protein 3; in assay [4]) was > 30 µM (inactive) in each case.
Consider `CC(C)CC(=O)Nc1[nH]nc2c1CN(C(=O)C1CCN(C)CC1)C2(C)C` [PHA-793887], for which the Kd (on dCTP pyrophosphatase 1; in assay [1]; at Myosin-14; in assay [2]; in assay [3]; in assay [4]) was > 30 µM (inactive) each time.
`O=C(NOC[C@H](O)CO)c1ccc(F)c(F)c1Nc1ccc(I)cc1F` [MIRDAMETINIB]: the Kd (at dCTP pyrophosphatase 1; in assay [1]; on Myosin-14; in assay [2]; in assay [3]; on Rab-like protein 3) was > 30 µM (inactive) throughout.
Take `NC[C@@](O)(c1ccc(Cl)cc1)c1ccc(-c2cn[nH]c2)cc1` [AT-13148]: the Kd (at dCTP pyrophosphatase 1; in assay [1]; on Myosin-14; in assay [2]; in assay [3]; in assay [4]) was > 30 µM (inactive) in each case.
